Active and inactive are the calls of the source. The calls are words filed in the database; no cut-off is given here.
How the values were obtained:
[1] = target: Cysteinyl leukotriene receptor 1 (Cavia porcellus); experiment: In vitro for antagonistic activity against LTD4 receptor in guinea pig ileum
[2] = target: T1, Cysteinyl leukotriene receptor 1 (Cavia porcellus) (UniProt Q2NNR5); experiment: In vitro antagonistic activity against LTD4 in guinea pig ileum at 200 nM; type: functional, tissue-based
T1 sequence (whole entry): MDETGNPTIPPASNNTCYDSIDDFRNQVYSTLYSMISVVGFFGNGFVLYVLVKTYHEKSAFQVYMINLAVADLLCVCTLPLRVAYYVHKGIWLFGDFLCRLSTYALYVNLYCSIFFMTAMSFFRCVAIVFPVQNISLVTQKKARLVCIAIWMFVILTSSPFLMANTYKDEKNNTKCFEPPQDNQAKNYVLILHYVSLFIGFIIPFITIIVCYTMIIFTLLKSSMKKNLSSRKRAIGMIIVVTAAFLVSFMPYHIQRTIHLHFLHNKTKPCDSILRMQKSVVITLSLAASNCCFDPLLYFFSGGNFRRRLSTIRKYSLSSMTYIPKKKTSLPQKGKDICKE

[3] = test system: Cavia porcellus; experiment: Compound was evaluated in vivo for LTD4-induced bronchospasm in guinea pig; type: functional
[4] = test system: Cavia porcellus; experiment: Compound was evaluated in vivo for LTD4-induced bronchospasm in guinea pig; IA means inactive at 10 mg/kg p.o.; type: functional, organism-based; design: dose 10 mg/kg
[5] = target: T2, Cysteinyl leukotriene receptor 1 (Cavia porcellus, UniProt Q2NNR5); experiment: In vitro inhibition of [3H]LTD4 binding to guinea pig lung membrane; type: tissue-based
T2 sequence (Q2NNR5 whole entry): T1 sequence (whole entry)

[6] = target: T1, Cysteinyl leukotriene receptor 1 (Cavia porcellus); experiment: In vitro antagonistic activity against LTD4 in guinea pig ileum at 240 nM; type: functional, tissue-based

Structure (SMILES)	IC50 [1] [nM]	further results
CCC(CC)(CC(=O)Nc1cccc(OCc2ccc3ccc(C)cc3n2)c1)C(=O)O	11	–
CC(C)(CC(=O)Nc1cccc(OCc2ccc3ccc(F)cc3n2)c1)C(=O)O	1.4	–
CCC(CC)(CC(=O)Nc1cccc(COc2ccc3ccccc3n2)c1)C(=O)O	3900	–
CCC(CC)(CC(=O)Nc1cccc(/C=C/c2ccc3ccc(F)cc3n2)c1)C(=O)O	0.4	–
CCC(CC)(CC(=O)Nc1cccc(OCc2ccc3cc(C)ccc3n2)c1)C(=O)O	24	–
CCC(CC)(CC(=O)O)C(=O)Nc1cccc(OCc2ccc3ccc(F)cc3n2)c1	140	–
O=C(O)CCC(=O)Nc1cccc(OCc2ccc3ccc(F)cc3n2)c1	200	–
CCC(CC)(CC(=O)Nc1cccc(OCc2ccc3ccc(OCc4ccccc4)cc3n2)c1)C(=O)O	–	inhibition [2]: 0%
CCC(CC)(CC(=O)Nc1cccc(OCc2ccc3cc(F)ccc3n2)c1)C(=O)O	2	–
COc1cc(C(=O)NS(=O)(=O)c2ccccc2C)ccc1Cc1cn(C)c2ccc(NC(=O)OC3CCCC3)cc12 [ZAFIRLUKAST]	–	ED50 [3]: 0.55 mg/kg
CCC(CC)(CC(=O)Nc1cccc(OCc2ccc3c(F)cccc3n2)c1)C(=O)O	0.3	–
CCC(CC)(CC(=O)Nc1cccc(OCc2ccc3ccc(C(F)(F)F)cc3n2)c1)C(=O)O	3	ED50 [4]: inactive
O=C(CC1(C(=O)O)CCCC1)Nc1cccc(OCc2ccc3ccc(F)cc3n2)c1	10	–
CCC(CC)(CC(=O)Nc1cccc(OCc2ccc3ccccc3n2)c1)C(=O)O	0.9	ED50 [3]: 0.42 mg/kg; IC50 [5]: 9 nM
CCC(CC)(CC(=O)Nc1cccc(OCc2ccc3cccc(F)c3n2)c1)C(=O)O	6	–
O=C(CC1(C(=O)O)CCCCC1)Nc1cccc(OCc2ccc3ccc(F)cc3n2)c1	7.3	–
CCC(CC)(CC(=O)Nc1cccc(OCc2ccc3ccc(Br)cc3n2)c1)C(=O)O	4	–
CCC(CC)(CC(=O)Nc1cccc(OCc2ccc3ccc(C(C)=O)cc3n2)c1)C(=O)O	2500	–
CCC(CC)(CC(=O)Nc1cccc(OCc2ccc3cc4c(cc3n2)CCC4)c1)C(=O)O	9	–
CCC(CC)(CC(=O)Nc1cccc(OCc2ccc3ccc(O)cc3n2)c1)C(=O)O	–	inhibition [6]: 0%
CCC(CC)(CC(=O)Nc1cccc(OCc2ccc3cc(C)c(C)cc3n2)c1)C(=O)O	11	–
CCCC(CCC)(CC(=O)Nc1cccc(OCc2ccc3ccc(F)cc3n2)c1)C(=O)O	2	–
CCC(CC)(CC(=O)Nc1cccc(OCc2ccc3ccc(Cl)cc3n2)c1)C(=O)O	0.8	ED50 [3]: 0.11 mg/kg; IC50 [5]: 64 nM
CCC(CC)(CC(=O)Nc1cccc(OCc2ccc3ccc(F)cc3n2)c1)C(=O)O	0.2	ED50 [3]: 0.07 mg/kg; IC50 [5]: 6 nM
CCC(C)(CC(=O)Nc1cccc(OCc2ccc3ccc(F)cc3n2)c1)C(=O)O (configuration not stated)	6.4	–
CCC(CC)(CC(=O)Nc1cccc(SCc2ccc3ccc(F)cc3n2)c1)C(=O)O	4	–
CCC(CC)(CC(=O)Nc1cccc(OCc2ccc3ccc(OC)cc3n2)c1)C(=O)O	80	–
CCCCC(CCCC)(CC(=O)Nc1cccc(OCc2ccc3ccc(F)cc3n2)c1)C(=O)O	1	–
CCC(CC)(CC(=O)Nc1cccc(OCc2ccc3ccc(OC(F)(F)F)cc3n2)c1)C(=O)O	9	–
CCC(CC)(CC(=O)Nc1cccc(OCc2ccc3cc(F)c(F)cc3n2)c1)C(=O)O	0.5	–

Reference: ChEMBL document CHEMBL1130795, “Synthesis and SAR of a novel, potent and structurally simple LTD4 antagonist of the quinoline class” (Bioorg Med Chem Lett, 1998)
